The conditions of data set [1]: HPLC analysis, cited from earlier work.
Another data set deals with ARPE19 cells. As to the kind of experiment: Cell viability assay (AlamarBlue) of ARPE19 cells treated with A2E lots, with or without inhibitors. As to conditions: RPE cells, 24 hours in the dark. The class given is cell-based. On the procedure: ARPE19 cells from ATCC were plated at 80% confluency in 96-well plates and pre-treated for 1 hour with inhibitors (33 μM Necrostatin 7 (Cayman Chemicals): 2 mM N-acetyl-cysteine (NAC) (Sigma): 50 μg/ml phoroglucinol (Sigma)), after which the medium was supplemented with A2E/ATRD or vehicle (control) and cells were incubated in serum-free OptiMEM (Invitrogen) medium for an additional 23 hours at 37° C. To assess viability, 20 μL of 10× AlamarBlue® (Invitrogen) were added per well, and cells were incubated for an additional hour before reading the fluorescence in SpectraMax M5e (Molecular Devices, CA, USA) using 555 nm excitation/585 nm emission.
On the technique in general: The colour change of resazurin is a common sign of viable cells or microbes.

Regarding `CC(C=CC1=C(C)CCCC1(C)C)=CC=CC(C)=Cc1cc(C=CC=C(C)C=CC2=C(C)CCCC2(C)C)cc[n+]1CCO` [A2E, N-retinylidene-N-retinylethanolamine], in data set [1] (solvents THF, CHCl3 or EtOH), the “stability in THF, CHCl3 or EtOH” value is listed as “not stable”. Further, the “stability in methanol and DMSO” value in data set [1] (solvents methanol and DMSO) is given as “stable”.

Take `CC(C=CC1=C(C)CCCC1(C)C)=CC=CC(C)=Cc1cc(C=CC=C(C)C=CC2=C(C)CCCC2(C)C)cc[n+]1CCO` [A2E #3, N-retinylidene-N-retinylethanolamine]: the “neutralization of A2E toxicity by necroptosis inhibitor Nec7” value with ARPE19 cells (pre-treated with 33 μM Necrostatin 7) was “better neutralized with the necroptosis inhibitor, Nec7”.

Regarding `CC(C=CC1=C(C)CCCC1(C)C)=CC=CC(C)=Cc1cc(C=CC=C(C)C=CC2=C(C)CCCC2(C)C)cc[n+]1CCO` [A2E #1, N-retinylidene-N-retinylethanolamine], the “protection from A2E-induced toxicity by antioxidants (NAC)” value with ARPE19 cells (pre-treated with 2 mM N-acetyl-cysteine) is “partially protected by antioxidants (NAC)”.

Source of the values: patent US20250034094A1, “A FAST AND EFFICIENT PROCESS FOR THE PREPARATION OF N-RETINYLIDENE-N-RETINYLETHANOLAMINE (A2E)” (Purdue Research Foundation, priority 2021, published 2025).
